Results on four compounds are retold here after US8703479B2, “Technology and method to study microbial growth and adhesion to host-related surfaces and the host-microbiota interaction” (Universiteit Gent, priority 2009, dated 2014).

For data set [1] the following is noted: polycarbonate membrane, 200 μm-thick mucus layer, room temperature.
Protocol: The adhesion module was built with a functional double layer separating the completely anaerobic upper chamber (95% N2-5% CO2) from the aerobic lower chamber (95% O2-5% CO2). Oxygen concentration in the upper chamber was measured by means of a Hach Lange luminescent LDO oxygen probe. Experiments were conducted at room temperature with a 200 μm-thick mucus layer using a polycarbonate or a polyamide membrane.
Data set [2] is described as follows: Adhesion of a pure bacterial culture to the mucus-covered layer of the adhesion module. The following applies: contact time […]. The protocol:
A first objective of working with the in vitro adhesion module is to explore the adhesion potential of pure cultures of gut microorganisms vs mixed microbial communities onto a mucus-covered layer. A culture of Lactobacillus rhamnosus GG was grown in relevant medium and inoculated in the luminal chamber of the adhesion module. The luminal chamber of a second system was inoculated with an in vitro adapted microbial community originated from the ascending colon of a Simulator of the Human Intestinal Microbial Ecosystem (SHIME) reactor. The adhesion module consisted of a luminal chamber containing the growth medium and the inoculated bacterial strain and a basal chamber from which oxygen could diffuse across a semi-permeable polycarbonate membrane, which was covered on its luminal side with a mucin layer, relevant for the specific region of the gastrointestinal tract. The contact time between the inoculated bacteria and the functional layer was established in 1.5 h. […] The obtained suspension was analyzed for microbial concentration using plate counts specific for different bacterial groups. […] Although not further analyzed at this moment, also the medium and optionally present cells of the basal chamber can be sampled and analyses can be conducted to estimate the simulated host's cellular response.

In data set [3] the test system is suspension of the ascending colon compartment of a SHIME system. Nature of the data set: Adhesion potential of a mixed microbial community under short-term prebiotic treatment in the adhesion module. The following applies: ascending colon SHIME suspension in luminal chamber, data not shown. The text has this: A second objective of working with the in vitro adhesion module is to explore the adhesion potential of selected microbial cultures in the presence of a complex microbial community relevant for the terminal ileum and colon respectively and to evaluate the host cellular response towards this community. To this end, a suspension of the ascending colon compartment of a SHIME system was sampled and inoculated in the luminal chamber of the adhesion module in presence of inulin with a degree of polymerization between 2 and 20, and arabinoxylans (AX) with a degree of substitution of 0.7, and a strongly varying degree of polymerization (on average 200). The short-term effect of these functional foods was evaluated.

The subject of data set [4] is mucin-adhered microbiota of the SHIME. Nature of the data set: Long-term prebiotic treatment in the SHIME with adhesion modules, plate counts, Adhesion Related Prebiotic Index. Set-up: species or system human. Particulars: 2.5 g/L; for Adhesion Related Prebiotic Index (AR-PI): mucin-adhered microbial community, plate counts before and after the treatment. The source says:
The aim of this study was to evaluate the effect of known prebiotic compounds (inulin and arabinoxylan—AX) on the microbiota associated with the gut wall in different areas of the GI tract and under long-term representative conditions. For this purpose, the adhesion module was used together with a well-validated gastrointestinal model—the Simulator of the Human Intestinal Microbial Ecosystem (SHIME). Clearly, the inherent adhesion potency, the specific growth rate, the state of mucus layer and interaction with endogenous microorganisms (adhered or in suspension) determined the microbial potency to colonize the intestinal epithelium.
The reactor setup is adapted from the system, representing the gastrointestinal tract of the adult human, as described by Molly et al. (1993). The SHIME consists of a succession of five reactors simulating the different parts of the human gastrointestinal tract. The first two reactors are of the fill-and-draw principle to simulate different steps in food uptake and digestion, with peristaltic pumps adding a defined amount of SHIME feed (140 mL 3×/day) and pancreatic and bile liquid (60 mL 3×/day), respectively to the stomach (V1) and duodenum (V2) compartment and emptying the respective reactors after specified intervals. The last three compartments are continuously stirred reactors with constant volume and pH control. Retention time and pH of the different vessels are chosen in order to resemble in vivo conditions in the different parts of the gastrointestinal tract. The overall residence time of the last three vessels, simulating the large intestine, is 76 h. Upon inoculation with fecal microbiota, these reactors simulate the ascending (V3), transverse (V4) and descending (V5) colon. Inoculum preparation, retention time, pH, temperature settings and reactor feed composition were previously described by Possemiers et al. (2004). […]
During the basal period, the SHIME reactor is operated under nominal conditions. Parameters such as short chain fatty acid (SCFA) production and ammonium production are determined 3 times/week and plate count analyses are performed once a week for selected bacterial groups (total (an) aerobes, total Clostridia, lactobacilli, bifidobacteria, total coliforms, staphylococci). The results of these analyses serve as the background values to be used to compare the measured parameters from the treatment period. […]
During the treatment period, the SHIME reactor is operated under nominal conditions, but with a modified diet containing a lower amount of starch in the medium compared to that of the basal period and the effect of a specific compound (inulin or arabinoxylan—2.5 g/L) is tested. SCFA and ammonium production are determined 3 times/week and plate count analysis is performed once a week. […]

Take `O=O` [Oxygen]: the “relative diffusion coefficient (DO2)” value in data set [1] was 9.8.10^−6 cm^2/sec.

Take Lactobacillus rhamnosus GG: the “factor by which adhesion to the mucin-agar layer is higher than to mucin-free agar” value in data set [2] was found to be 6.19. Further, in data set [2] (mucin-agar layer, plate counts), the percentage adhesion was found to be 15.7±3.2%.

arabinoxylan [AX]: the “effect on adhesion capacity of the investigated bacterial groups” value in data set [3] is listed as “decreased the adhesion capacity of all the investigated groups”. In data set [4] (long-term SHIME treatment), the “effect on the luminal and mucin-associated bacteria compared to that of inulin” value was “stronger and more permanent”; the “stimulation of the adhered lactobacilli” value was “particularly potent”. Further, the “Adhesion Related Prebiotic Index (AR-PI)” value in data set [4] came out at 70.

Consider inulin, for which the “effect on adhesion capacity of the investigated bacterial groups” value in data set [3] is on record as “less or no influence”. Further, the “Adhesion Related Prebiotic Index (AR-PI)” value in data set [4] came to 14.
